This note sets out measurements from ChEMBL document CHEMBL1130318, “Inhibition of stromelysin-1 (MMP-3) by P1'-biphenylylethyl carboxyalkyl dipeptides” (J Med Chem, 1997).

Data set [1] can be described thus: Clearance was measured in rabbit after administration of compound 12 mg/kg intravenously. The conditions noted are these: in vivo, iv.
The nature of data set [2]: Plasma half-life was measured in rabbit after administration of compound 12 mg/kg intravenously. The following applies: iv.
The nature of data set [3]: Volume distribution was measured in rabbit after administration of compound 12 mg/kg intravenously. The following applies: in vivo, iv, read-out: Vdss.
A short description of data set [4]: Volume distribution was measured in mouse after administration of compound 20 mg/kg intravenously. The data set is classed as ADME, organism-based. On the set-up: dose 20 mg/kg, route intravenous. The conditions noted are these: in vivo, iv, read-out: Vdss.
Data set [5] is described as follows: Clearance was measured in mouse after administration of compound 20 mg/kg intravenously. The conditions noted are these: in vivo, iv. In kind it is ADME, organism-based. Set-up: dose 20 mg/kg, route intravenous.
A further data set has as its target Stromelysin-1 (Homo sapiens, UniProt P08254).
Data set [6] can be described thus: Percent oral bioavailability was measured in mouse after administration of compound 20 mg/kg perorally. The following applies: in vivo. The data set is classed as ADME, organism-based.
The target in data set [7] is 72 kDa type IV collagenase (Homo sapiens, UniProt P08253).
72 kDa type IV collagenase, sequence (P08253 whole entry): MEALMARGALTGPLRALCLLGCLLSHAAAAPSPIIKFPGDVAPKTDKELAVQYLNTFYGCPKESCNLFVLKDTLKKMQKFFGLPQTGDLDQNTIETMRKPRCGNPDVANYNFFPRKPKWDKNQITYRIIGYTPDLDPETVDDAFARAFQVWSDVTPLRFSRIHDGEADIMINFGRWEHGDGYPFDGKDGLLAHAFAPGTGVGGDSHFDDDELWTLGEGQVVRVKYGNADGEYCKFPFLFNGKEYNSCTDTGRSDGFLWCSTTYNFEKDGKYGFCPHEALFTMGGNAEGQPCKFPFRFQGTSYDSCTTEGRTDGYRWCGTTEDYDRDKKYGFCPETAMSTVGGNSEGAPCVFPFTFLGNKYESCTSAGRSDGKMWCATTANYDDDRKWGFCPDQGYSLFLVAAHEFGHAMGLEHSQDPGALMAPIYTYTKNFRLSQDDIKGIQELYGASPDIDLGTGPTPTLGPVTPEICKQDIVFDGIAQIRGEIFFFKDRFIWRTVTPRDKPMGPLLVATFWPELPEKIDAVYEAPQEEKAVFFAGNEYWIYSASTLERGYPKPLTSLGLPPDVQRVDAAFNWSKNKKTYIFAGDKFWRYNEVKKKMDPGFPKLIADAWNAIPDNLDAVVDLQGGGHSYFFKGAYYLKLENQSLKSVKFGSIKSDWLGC
Description: Inhibition of gelatinase A (Matrix metalloprotease-2)
The nature of data set [8]: Volume distribution was measured in rat after administration of compound 20 mg/kg intravenously. The conditions noted are these: in vivo, iv, read-out: Vdss. On the set-up: dose 20 mg/kg, route intravenous. In kind it is ADME, organism-based.
The nature of data set [9]: Plasma half-life was measured in rat after administration of compound 20 mg/kg intravenously. In kind it is ADME, organism-based. Set-up: dose 20 mg/kg, route intravenous. The conditions noted are these: iv.
Data set [10] is described as follows: Percent oral bioavailability was measured in rat after administration of compound 20 mg/kg perorally. The following applies: in vivo. In kind it is ADME, organism-based.
Data set [11] can be described thus: Clearance was measured in rat after administration of compound 20 mg/kg intravenously. In kind it is ADME, organism-based. On the set-up: dose 20 mg/kg, route intravenous. The following applies: in vivo, iv.
Data set [12] is described as follows: Plasma half-life was measured in mouse after administration of compound 20 mg/kg intravenously. In kind it is ADME, organism-based. Set-up: dose 20 mg/kg, route intravenous. The following applies: iv.

Stromelysin-1, sequence (P08254 whole entry): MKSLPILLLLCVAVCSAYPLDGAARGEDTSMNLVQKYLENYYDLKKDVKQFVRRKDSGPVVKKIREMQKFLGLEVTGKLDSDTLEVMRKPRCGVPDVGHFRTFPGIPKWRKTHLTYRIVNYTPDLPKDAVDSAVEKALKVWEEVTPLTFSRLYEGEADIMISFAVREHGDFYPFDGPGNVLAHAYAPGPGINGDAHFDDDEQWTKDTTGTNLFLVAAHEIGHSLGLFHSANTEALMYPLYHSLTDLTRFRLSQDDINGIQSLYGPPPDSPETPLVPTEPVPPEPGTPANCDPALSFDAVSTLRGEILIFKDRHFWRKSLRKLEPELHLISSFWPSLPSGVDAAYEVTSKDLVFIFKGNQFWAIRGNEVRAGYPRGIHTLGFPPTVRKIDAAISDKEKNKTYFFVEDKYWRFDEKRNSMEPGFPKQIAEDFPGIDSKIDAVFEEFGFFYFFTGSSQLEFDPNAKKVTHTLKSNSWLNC
Description for Stromelysin-1: Inhibition of human stromelysin-1 (Matrix metalloprotease-3)

In general, clearance refers to the rate of elimination divided by the concentration. Read a low clearance as inefficient removal. What is called half-life is the time needed for the level to fall by half in the phase considered. The low end stands for fast loss, the high end for slow loss. The Ki is the dissociation constant of the complex between target and ligand, obtained from inhibition or displacement. One may read the bioavailability as dose-corrected exposure relative to a reference, in per cent. The low end stands for poor availability, the high end for good availability. On to `CCCC[C@@H](C[C@@H](CCc1ccc(-c2ccc(F)cc2)cc1)C(=O)N[C@H](C(=O)NC)C(C)(C)C)C(=O)O`, for which the clearance in data set [1] came out at 7.6 mL/min/kg; in data set [5], 1.1 mL/min/kg; in data set [11], 1.3 mL/min/kg. In addition, the half-life in [2] was 54 min; in data set [9], 264 min; in [12] it was 162 min. Further, the values for the Vd in [3], in [4] and in [8] were 0.2 L/kg, 0.2 L/kg and 0.32 L/kg, respectively. Moreover, the inhibitory constant (Ki) on Stromelysin-1 is 10 nM; in data set [7], 17 nM. Further, the bioavailability was 78% in [6] and 60% in data set [10].
